SMILES strings stand for the structures. Marks after values point to notes of the source that are not given here.

The results in this text go back to patent publication US9198426B2, “Use of 5 pyridin-4-yl-1,3-thiazoles for controlling phytopathogenic fungi” (Bayer Intellectual Property GmbH, priority 2008, dated 2015).

Data set [1] is described as follows: physchem. The format is physicochemical.
Data set [2] concerns Fusarium proliferatum. Kind of data set: Production of fumonisin FB1 by Fusarium proliferatum (microtitre plates). Type of data set: cell-based. Conditions: 120 h, 5 days, 20° C., HPLC-MS/MS.
Data set [3] has as its system Fusarium graminearum. Kind of data set: microbe, parasite or virus in culture. Conditions: 168 h, read-out: activity in the inhibition of DON/AcDON production. Type of data set: cell-based.

With `CCc1nc(-c2ccccc2)c(-c2ccnc(NC(=O)c3ccccc3)c2)s1` [compound 69], in data set [1] (pH 2.7), the log p was 3.91^[b].

As to `Fc1ccc(-c2nc(C(F)F)sc2-c2ccncc2)cc1` [compound 88], the log p in data set [1] (pH 2.7) was 2.48^[b]; in data set [1] (pH 7.8) it was 3.01^[c];.

Regarding `CCc1nc(-c2ccc(F)cc2)c(-c2ccnc(N)c2)s1` [Ex. 35, 4-[2-Ethyl-4-(4-fluorophenyl)-1,3-thiazol-5-yl]pyridine-2-amine], the chromatographic logP (usually a lipophilicity value derived from retention on a column) in data set [1] (pH 2.7) was 1.29.

In data set [1] (pH 2.7), `CCc1nc(-c2ccc(F)cc2)c(-c2ccnc(C)c2)s1` [Ex. 96, 4-[2-Ethyl-4-(4-fluorophenyl)-1,3-thiazol-5-yl]-2-methylpyridine] showed a chromatographic logP of 1.68.

In the case of `CCc1nc(-c2ccc(F)cc2)c(-c2ccnc(C(=O)N(C)CC)c2)s1` [compound 73], the log p is 2.81^[b] in data set [1] (pH 2.7) and 2.87^[c]; in data set [1] (pH 7.8).

In the case of `CCc1nc(-c2ccc(F)cc2)c(-c2ccnc(Nc3ccccc3)c2)s1` [compound 60], the log p in data set [1] (pH 2.7) is 3.1^[b].

On to `C#CCN(C(C)=O)c1cc(-c2sc(CC)nc2-c2ccc(F)cc2)ccn1` [compound 102], for which the log p in data set [1] (pH 2.7) is 3.03^[b]; in data set [1] (pH 7.8) it was 3.02^[c];.

Regarding `CCc1nc(-c2ccc(F)cc2)c(-c2ccnc(NC(=O)C(C)C)c2)s1` [compound 82], the log p is 3.52^[b] in data set [1] (pH 2.7) and 3.66^[c]; in data set [1] (pH 7.8).

For `CCc1nc(-c2ccc(F)cc2)c(-c2ccnc(NS(C)(=O)=O)c2)s1` [compound 91], the log p is 2.36^[b] in data set [1] (pH 2.7) and 2.18^[c]; in data set [1] (pH 7.8).

As to `CCc1nc(-c2ccc(F)cc2)c(-c2ccnc(NC(=O)C3(C)CC3)c2)s1` [compound 95], the log p was 3.89^[b] in data set [1] (pH 2.7) and 4.03^[c]; in data set [1] (pH 7.8).

With `CCCCc1nc(-c2ccc(F)cc2)c(-c2ccncc2)s1` [compound 47], in data set [1] (pH 2.7), the log p is 3.11^[b].

Consider `CCc1nc(-c2ccc(F)cc2)c(-c2ccnc(NC(=O)c3cccs3)c2)s1` [compound 56], for which the log p in data set [1] (pH 2.7) is 3.92^[b].

In the case of `CCc1nc(-c2ccc(F)cc2)c(-c2ccnc(NC(=O)C3CCCCC3)c2)s1` [compound 54], in data set [1] (pH 2.7), the log p was 4.54^[b].

As to `Fc1ccc(-c2nc(C3CC3)sc2-c2ccncc2)cc1` [compound 89], the log p is 2.16^[b] in data set [1] (pH 2.7) and 3.32^[c]; in data set [1] (pH 7.8).

For `CCc1nc(-c2ccc(F)cc2)c(-c2ccnc(NC(=O)CC(C)C)c2)s1` [compound 99], the log p in data set [1] (pH 2.7) was 3.91^[b]; in data set [1] (pH 7.8), 4.04^[c];.

On to `CCc1nc(-c2ccc(F)cc2)c(-c2ccnc(N(C(=O)OC(C)C)C(=O)OC(C)C)c2)s1` [compound 93], for which the log p in data set [1] (pH 2.7) was 4.5^[b]; in data set [1] (pH 7.8), 4.49^[c];.

With `Fc1ccc(-c2nc(Cc3ccccc3)sc2-c2ccncc2)cc1` [compound 45], the log p in data set [1] (pH 2.7) is 2.94^[b].

In the case of `CCc1nc(-c2ccc(F)cc2)c(-c2ccnc(NC(=O)c3ccc(C)cc3)c2)s1` [compound 50], in data set [1] (pH 2.7), the log p was 4.48^[b].

Consider `CCc1nc(-c2ccc(F)cc2)c(-c2ccnc(Cl)c2)s1` [Ex. 58, 2-Chloro-4-[2-ethyl-4-(4-fluorophenyl)-1,3-thiazol-5-yl]pyridine], for which the chromatographic logP is 4.07 in data set [1] (pH 2.7) and 4.1 in data set [1] (pH 7.8).

For the compound `CCc1nc(-c2ccc(F)cc2)c(-c2ccnc(NC(=O)c3ccc(F)cc3)c2)s1` [compound 52], the log p in data set [1] (pH 2.7) was 4.18^[b].

As for `CCc1nc(-c2ccc(F)cc2)c(-c2ccncc2)s1` [Ex. 41, 4-[2-Ethyl-4-(4-fluorophenyl)-1,3-thiazol-5-yl]pyridine], the inhibition at 50 µM in data set [2] and in data set [3] was more than 70% in each case. The results for the chromatographic logP in data set [1] (pH 2.3) and in data set [1] (pH 7.8) were 2.01 and 2.89, respectively.

Consider `CCc1nc(-c2ccc(F)cc2)c(-c2ccnc(N3CCCC3)c2)s1` [compound 64], for which the log p in data set [1] (pH 2.7) is 2^[b].

`CCc1nc(-c2ccc(F)cc2)c(-c2ccnc(N(C)C(=O)c3ccccc3)c2)s1` [compound 67]: the log p in data set [1] (pH 2.7) is 3.68^[b].
